Like-named read-outs stand apart in the source and are kept apart here.
What was measured:
[1] = system: AMT; assay type: cell-based, rat; settings: [14C]AEA uptake, RBL-2H3 cells; read-out: AEA transport (IC50)
Method: AEA. Cells were incubated with [^14C] AEA for 5 min at 37° C., in the presence or absence of varying concentrations of the inhibitors. Residual [^14C] AEA in the incubation media after extraction with CHCl3/CH3OH 2:1 (by vol.), determined by scintillation counting of the lyophilized organic phase, was used as a measure of the AEA that was taken up by cells.
(§1) CP55940 from whole rat brain membranes.

[2] = molecular target: T1, CB1 receptors (Rattus norvegicus, UniProt P20272); test: CB1 receptor binding, [3H]CP55940, whole rat brain membranes (Example 3); settings: read-out: CB1 affinity Ki
[3] = molecular target: T2, FAAH (Rattus norvegicus, UniProt P97612); test: Fatty acid amide hydrolase assay, rat brain membranes; assay type: biochemical
T2 construct: membranes prepared from frozen brains of CD rats (Charles River, France); from tissue; host or cells: brain membranes of CD rats
T2 sequence (P97612 1-579): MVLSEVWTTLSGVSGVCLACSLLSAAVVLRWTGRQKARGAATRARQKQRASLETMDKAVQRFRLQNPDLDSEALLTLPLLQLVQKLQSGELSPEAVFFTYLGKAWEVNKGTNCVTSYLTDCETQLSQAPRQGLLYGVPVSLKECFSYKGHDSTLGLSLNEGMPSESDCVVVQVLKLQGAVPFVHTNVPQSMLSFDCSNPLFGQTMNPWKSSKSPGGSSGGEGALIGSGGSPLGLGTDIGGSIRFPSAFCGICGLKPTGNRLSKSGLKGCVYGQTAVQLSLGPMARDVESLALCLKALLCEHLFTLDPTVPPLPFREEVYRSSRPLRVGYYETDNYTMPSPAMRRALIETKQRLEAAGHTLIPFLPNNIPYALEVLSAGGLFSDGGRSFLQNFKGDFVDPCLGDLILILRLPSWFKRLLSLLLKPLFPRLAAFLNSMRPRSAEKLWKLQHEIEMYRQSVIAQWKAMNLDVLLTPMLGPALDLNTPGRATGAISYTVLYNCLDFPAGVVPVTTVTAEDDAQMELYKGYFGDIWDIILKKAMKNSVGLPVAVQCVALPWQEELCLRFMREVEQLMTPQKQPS
Method: Fatty acid amide hydrolase assay—The effect of compounds on the enzymatic hydrolysis of AEA was studied using membranes prepared from frozen brains of CD rats (Charles River, France), incubated with the test compounds and [^14C] AEA (9 μM) in 50 mM Tris-HCl, pH 9, for 30 min at 37° C. [^14C] Ethanolamine produced from [^14C] AEA hydrolysis was measured by scintillation counting of the aqueous phase after extraction of the incubation mixture with 2 volumes of CHCl3/CH3OH 2:1 (by vol.).
as §1

[4] = system: mice; test: Mouse tetrad of behavioral tests, i.v. (Example 3); assay type: in vivo; settings: i.v.; for R.I. ED50 / Rectal temp. ED50 / Spontan. activity ED50 / Tail Flick ED50: mean (range)
Method: The analogs were administered to mice by tail-vein injection and evaluated for their ability to produce hypomotility, hypothermia, and antinociception. These pharmacological measures were determined in the same mouse at a time when maximal activity was present. […] A 10-sec maximum latency was used. Antinociception was expressed as % MPE as described below.
Data Analysis—For production of hypomotility and hypothermia, the data were expressed as a percentage of control activity and change in temperature, respectively. Antinociception was calculated according to the following equation.
% MPE=−((test latency-control latency)/(10s-control latency))×100
At least six animals were treated with each dose-response relationships could be determined for each analog. ED50 values were determined from least-squares unweighted linear regression analysis of log dose-response plots.
The ED50 (milligrams per kilogram, i.v.) does for inhibition of sector crossings (spontaneous activity) in an open field, antinociception (delay in seconds in the tail-flick response), decrease of rectal temperature in degrees Celsius, and induction of time spent in immobility on a ring are shown. Data are means (and ranges) of N>six animals.

[5] = molecular target: T1, CB1 receptors; test: Agonist-stimulated [35S]GTPγS binding, rat hippocampal membranes; settings: for Emax: read-out: GTPγS binding (Emax)
[6] = molecular target: T3, human VR1 receptor (Homo sapiens, UniProt Q8NER1); test: Cytosolic calcium concentration assay in HEK-hVR1 cells (Example 3)
[7] = molecular target: T4, CB2 receptors (Rattus norvegicus, UniProt Q9QZN9); test: CB2 binding, displacement of [3H]WIN55,212-2 from rat spleen membranes
T4 construct: rat spleen membranes, which contain mostly CB2 receptors; from tissue; host or cells: rat spleen membranes
T4 sequence (Q9QZN9 1-360): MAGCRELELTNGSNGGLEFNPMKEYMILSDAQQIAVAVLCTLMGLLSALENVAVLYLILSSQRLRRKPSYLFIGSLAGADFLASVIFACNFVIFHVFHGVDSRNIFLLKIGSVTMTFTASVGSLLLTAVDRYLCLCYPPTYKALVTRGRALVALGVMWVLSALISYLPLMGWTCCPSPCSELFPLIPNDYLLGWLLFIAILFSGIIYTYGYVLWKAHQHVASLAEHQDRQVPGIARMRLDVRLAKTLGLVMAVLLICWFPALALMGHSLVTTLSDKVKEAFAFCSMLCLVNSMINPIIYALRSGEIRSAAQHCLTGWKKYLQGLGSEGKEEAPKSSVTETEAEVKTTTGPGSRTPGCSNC
Method: (§2) For CB1 receptor binding, [^3H]CP-55,940 (Kd=[…]) was incubated with P2 membranes from whole rat brains as described in Compton et al., J. Pharm. Exp. Ther. 265:218-226 (1993). Displacement curves were generated by incubating drugs with 1 nM of [^3H]CP-55,940. The assays were performed in triplicate, and the results represent the combined data from three individual experiments. A separate set of experiments were conducted in which phenylmthylsulfonylfluoride (PMSF) was added at a concentration of 100 μm in order to prevent possible metabolism of the analogs. CB2 binding assays were performed as described in Melek et al., ibid. In all cases, Ki values were calculated applying the Cheng-Prusoff equation to the IC50 values (obtained by GraphPad) for the displacement of the bound radioligand by increasing concentrations of the test compounds.
(§3) In Table 1, affinity for CB1 and CB2 receptors was measured in displacement assays carried out using rat brain or spleen membranes and [^3H]CP 55,940 or […], respectively. Potency at human VR1 was established by measuring the stimulatory activity of the compounds on the Ca^2+ intracellular concentration in HEK cells transfected with cDNA encoding the human VR1 receptor. Efficacy at VR1 was measured by expressing the effect of a maximal concentration of each compound (usually 10 μM) as percent of the maximal possible effect obtained with 4 μM ionomycin. Data are means ±SEM of at least n=3 separate determinations. *Ki was determined in the presence of PMSF.
The hydroxy analog is much less CB1 vs. CB2 selective in both series.

[8] = molecular target: T5, fatty acid amide hydrolase (FAAH) (Mus musculus, UniProt O08914); test: [14C]AEA hydrolysis by N18TG2 cell membranes; assay type: biochemical
T5 construct: membranes prepared from N18TG2 cells; endogenous in cells; host or cells: N18TG2 cell membranes
T5 sequence (O08914 1-579): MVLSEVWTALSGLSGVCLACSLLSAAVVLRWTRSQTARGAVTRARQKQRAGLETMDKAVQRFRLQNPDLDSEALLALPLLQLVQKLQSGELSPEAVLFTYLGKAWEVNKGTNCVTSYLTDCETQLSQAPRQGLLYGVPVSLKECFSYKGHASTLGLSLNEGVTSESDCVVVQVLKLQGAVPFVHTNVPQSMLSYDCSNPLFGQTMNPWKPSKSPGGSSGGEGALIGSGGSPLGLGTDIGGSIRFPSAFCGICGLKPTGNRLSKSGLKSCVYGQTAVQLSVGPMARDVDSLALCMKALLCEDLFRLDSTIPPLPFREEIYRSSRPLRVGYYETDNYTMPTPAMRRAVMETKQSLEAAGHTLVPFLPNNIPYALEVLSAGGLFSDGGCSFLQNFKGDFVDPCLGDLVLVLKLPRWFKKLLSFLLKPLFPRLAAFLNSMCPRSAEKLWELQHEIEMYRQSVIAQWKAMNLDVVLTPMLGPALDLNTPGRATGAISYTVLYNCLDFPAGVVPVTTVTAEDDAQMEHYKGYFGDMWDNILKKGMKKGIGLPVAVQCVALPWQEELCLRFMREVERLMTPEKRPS
Method: (§4) The effect of compounds on the enzymatic hydrolysis of [^14C] AEA (6 μM) was studied by using membranes prepared from N18TG2 cells incubated with increasing concentrations of compounds in 50 mM Tris-HCL, pH 9, for 30 min at 37° C. [^14C] Ethanolamine produced from [^14C] AEA hydrolysis was quantified by scintillation spectroscopy and used to measure fatty acid amide hydrolase (FAAH) activity. The effect of compounds on the uptake of AEA by RBL-2H3 cells was studied with a procedure analogous to that described in Melck, ibid., and modified as described in Hilliard et al., J. Neurochem. 69:631-638 (1997). Cells were incubated with [^14C] AEA (4μM) for 5 min. at 37° C., in the presence or absence of varying concentrations of the inhibitors. Residual [1^4C] AEA in the incubation media after extraction with CHCl3/CH30H (2:1 by volume) was used as a measure of the AEA that was taken up by cells.
Accordingly, when the compounds were tested for their capability of inhibiting [^14C] […] This is in agreement with previous observations that Me-AEA, DMH-derivatives of AEA and arvanil are poor substrates for FAAH. The two exceptions were O-1856 and O-1895, which did inhibit the hydrolysis of [^14C] AEA, although not very potently.

[9] = molecular target: T3, human VR1 receptor; test: Ca2+ influx (Fluo-3) in HEK-hVR1 cells (Example 2); assay type: cell-based; parameters: expressed in transfected cells; host or cells: HEK 293 cells (HEK-hVR1)
Method: N18TG2 and RBL-2H3 cells were grown as described in Melck et al, Bioch. Biophys. Res. Commun. 262:275-284 (1999). Ionomycin was purchased from Sigma. DMH-arvanil, and six substituted dimethylpentyl (DMP) derivatives of arvanil and met-AEA were synthesized as described in Example 1.
HEK-hVR1 cells were prepared and loaded as described in De Petrocellis, et al., FEBS Lett. 483:52-56 (2000). Experiments were carried out by measuring fluorescence at 25° C. […] Capsazepine (1-5 μM) was added 30 minu. Before the test compounds.
as §3

[10] = system: anandamide membrane transporter (AMT); assay type: cell-based, rat; settings: [14C]AEA uptake, RBL-2H3 cells
Method: as §4
In consideration of the potent inhibition of the AMT previously observed with arvanil and its derivatives (see Melck, ibid), the seven compounds were also tested for their inhibitory effect on [^4C] […] Thus, the results in Table 1 confirm the existence of a partial overlap between the ligand recognition properties of VR1 receptors and the AMT (14.24).

[11] = molecular target: T1, CB1 receptors; test: CB1 receptor binding, displacement of [3H]CP-55,940 from rat brain P2 membranes (Example 2); parameters: from tissue; host or cells: whole rat brain membranes; settings: CB1 (Ki, nM), rat brain membranes
Method: as §2, §3

[12] = system: mice; test: Mouse 'tetrad' of tests after i.v. administration (Example 2); settings: Mus musculus, iv

T3 sequence (Q8NER1 whole entry): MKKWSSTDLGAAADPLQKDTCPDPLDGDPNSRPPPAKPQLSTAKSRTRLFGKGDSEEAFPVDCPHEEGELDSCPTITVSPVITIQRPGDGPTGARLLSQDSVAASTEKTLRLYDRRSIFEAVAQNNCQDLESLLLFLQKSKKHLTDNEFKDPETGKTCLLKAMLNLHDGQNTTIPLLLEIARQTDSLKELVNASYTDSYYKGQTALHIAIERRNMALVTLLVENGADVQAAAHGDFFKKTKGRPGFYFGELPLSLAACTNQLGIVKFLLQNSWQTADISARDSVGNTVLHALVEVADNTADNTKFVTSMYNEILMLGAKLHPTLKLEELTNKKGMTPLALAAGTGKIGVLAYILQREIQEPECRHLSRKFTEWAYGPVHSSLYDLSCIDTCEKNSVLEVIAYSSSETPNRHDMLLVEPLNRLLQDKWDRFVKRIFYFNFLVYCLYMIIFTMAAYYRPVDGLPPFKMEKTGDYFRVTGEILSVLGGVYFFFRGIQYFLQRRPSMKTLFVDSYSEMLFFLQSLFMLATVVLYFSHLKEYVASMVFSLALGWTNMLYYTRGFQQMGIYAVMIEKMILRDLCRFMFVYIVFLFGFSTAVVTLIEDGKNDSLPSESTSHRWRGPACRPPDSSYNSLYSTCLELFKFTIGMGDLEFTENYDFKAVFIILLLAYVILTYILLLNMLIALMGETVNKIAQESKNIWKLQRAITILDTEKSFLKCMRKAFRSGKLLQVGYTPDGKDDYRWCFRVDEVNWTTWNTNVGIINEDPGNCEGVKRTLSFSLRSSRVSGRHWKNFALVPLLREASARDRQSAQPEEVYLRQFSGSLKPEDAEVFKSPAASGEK
T1 sequence (P20272 whole entry): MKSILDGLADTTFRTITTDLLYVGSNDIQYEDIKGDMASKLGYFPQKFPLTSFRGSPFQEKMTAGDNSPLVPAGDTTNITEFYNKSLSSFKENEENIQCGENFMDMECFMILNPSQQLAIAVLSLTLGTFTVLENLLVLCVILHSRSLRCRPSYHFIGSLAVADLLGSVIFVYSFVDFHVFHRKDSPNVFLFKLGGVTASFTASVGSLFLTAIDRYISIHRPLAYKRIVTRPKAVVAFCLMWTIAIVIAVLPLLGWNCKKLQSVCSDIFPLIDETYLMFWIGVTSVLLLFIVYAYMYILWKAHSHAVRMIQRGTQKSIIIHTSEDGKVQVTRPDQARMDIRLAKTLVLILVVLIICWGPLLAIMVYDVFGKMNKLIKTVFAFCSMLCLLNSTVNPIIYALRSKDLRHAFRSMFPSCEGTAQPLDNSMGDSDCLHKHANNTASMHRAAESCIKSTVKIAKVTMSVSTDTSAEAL

Row | Structure (SMILES) | IC50 [1] [µM] | Ki [2] [nM] | IC50 [3] [µM] | Average ED50 [4] [milligrams per kilogram] | R.I. ED50 [4] | Rectal temp. ED50 [4] | Spontan. activity ED50 [4] | Tail Flick ED50 [4] | Emax [5] [%] | EC50 [6] [nM] | also measured
1 | CCCCC/C=C\C/C=C\C/C=C\C/C=C\CCCC(=O)NCc1cccc(OC)c1 [Compound O-1986] | 27.3 ± 3.5 | 484 ± 17 | 18.2 ± 2.8 | 5.80 | 6.13 (4.79-7.83) milligrams per kilogram | 6.15 (3.22-11.73) milligrams per kilogram | 4.74 (3.17-7.09) milligrams per kilogram | 6.15 (4.63-8.16) milligrams per kilogram | 0 | 63 ± 10.1 | fold less potent than arvanil at hVR1 [6]: more than 100 fold; Emax ([6]; read-out: hVR1 efficacy (maximal effect, in parentheses)): 68%
2 | COc1cc(CNC(=O)CCC/C=C\C/C=C\C/C=C\C/C=C\C(C)(C)CCCCBr)ccc1O [Compound O-1861, 20-Bromo-16,16-dimethyl-eicosa-5,8,11,14-all-cis-tetraenoic acid (4-hydroxy-3-methoxy-benzyl) amide] | – | – | – | – | – | – | – | – | 32 | – | Ki [7]: > 10 µM; IC50 [8]: > 50 µM; EC50 ([9]; VR1 (EC50, nM), Ca2+ in HEK cells with human VR1): 30 ± 0.2 nM; VR1 efficacy ([9]; maximal concentration (usually 10 μM), percent of effect of 4 μM ionomycin): 74.0 ± 4.5%; IC50 [10]: 13.5 µM; EC50 [5]: 70 nM; Ki ([11]; determined in the presence of PMSF, [3H]CP 55,940, PMSF 100 μM): 24.3 ± 2.6 nM; Ki ([11]; [3H]CP 55,940, without PMSF): 32.6 ± 1.2 nM; ED50 ([12]; read-out: Average ED50 for the four effects): 0.068 mg/kg; ED50 ([12]; read-out: R.I. (relative immobility) ED50): 0.055 mg/kg; ED50 ([12]; read-out: R.T. (rectal temperature) ED50): 0.053 mg/kg; ED50 ([12]; read-out: S.A. (spontaneous activity) ED50): 0.06 mg/kg; ED50 ([12]; read-out: T.F. (tail-flick) ED50): 0.104 mg/kg
3 | CCCCC/C=C\C/C=C\C/C=C\C/C=C\CCCNC(=S)NCc1ccc(O)c(Cl)c1 [Compound O-2109] | 3.8 ± 0.7 | 1800 ± 204 | > 50 | 0.15 | 0.15 (0.10-0.23) milligrams per kilogram | 0.33 (0.02-5.06) milligrams per kilogram | 0.02 (0.02-0.03) milligrams per kilogram | 0.09 (0.06-0.12) milligrams per kilogram | 0 | 4 ± 1.1 | fold less potent than O-2095 at VR1 [6]: 10 fold

— US20040122089A1, “Novel eicosanoid analgesics” (priority 2001, published 2004)
